In US12115208B2, “Small-molecule adjuvants for antibiotics to address antibiotic resistance” (HIGH POINT UNIVERSITY, priority 2017, dated 2024):
pIC50: −log10 of the molar value. Where two headings read alike, the source gives them in different places.

Tests used:
[1] = tested on: S. aureus 43300 (MRSA); test: Antibiotic repotentiation (antibiotic MIC with/without compound); format: cell-based, Staphylococcus aureus; settings: S. aureus 43300 (MRSA); for Fold Reduction: oxacillin MIC
Method: (§1) The overnight culture was diluted into fresh CAMHB to a concentration of 5×10^5 CFU/ml. […] On the same plate, a standard microdilution MIC with the tested antibiotics and no added compound was also performed to compare the antibiotic MIC in the presence and absence of compound. […] Fold reductions were calculated by dividing the MIC of the antibiotic without compound by the MIC of the antibiotic in the presence of compound.
(§2) The compounds were then analyzed for antibiotic repotentiation activity. […] The tested strains included USA300, which is a common and particularly virulent strain of community-acquired MRSA.

[2] = tested on: S. aureus USA300 (MRSA); test: Minimum inhibitory concentration, broth microdilution; format: cell-based, Staphylococcus aureus; settings: 18 h
Method: as §2

[3] = tested on: S. aureus ATCC 43300 (MRSA); test: as above; format: cell-based, Staphylococcus aureus; settings: 18 h
Method: as §2

[4] = tested on: S. epidermidis 49461; test: Antibiotic repotentiation (oxacillin MIC with/without compound); format: cell-based, Staphylococcus epidermidis; settings: +75 μM compound, S. epidermidis 49461
Method: as §1
Antibiotic potentiation in S. epidermidis was also investigated.

[5] = tested on: S. epidermidis ATCC 49461 biofilm; test: Biofilm inhibition, crystal violet assay; format: cell-based, Staphylococcus epidermidis; settings: read-out: Inhibition of biofilm formation IC50
Method: (§3) A standard static crystal violet assay was used to quantify biofilm inhibition.^45 Cultures of S. aureus or S. epidermidis were grown overnight in TSBG (tryptic soy broth with 5% glucose) at 37° C. with shaking. These cultures were used to inoculate fresh TSBG to a calculated optical density of 0.01 at 600 nm (OD600). […] Untreated aliquots were used as a positive control and water served as a negative control. 100 μl of these suspensions were added to the wells of a 96-well polyvinylchloride microtiter plate. […] After incubation, media was discarded and the plates were washed with water to remove non-adherent cells. Adherent biofilms were stained with 110 μl of crystal violet (0.1% in water) and incubated at room temperature for thirty minutes. The crystal violet staining solution was discarded and plates were washed with water to remove excess stain. The resulting stained biofilms were solubilized with 200 μL of 95% ethanol for 10 minutes. 125 μl of the ethanol solutions were transferred to a clear polystyrene microtiter plate for evaluation. Absorbance at 540 nm was recorded using a BioTek Synergy H1 microplate reader. The absorbance of the negative control lanes was subtracted from the experimental values to account for background staining. Percent inhibition was calculated by comparison of the absorbance values of control versus treated wells under identical conditions.

[6] = tested on: S. aureus ATCC 29213; test: Minimum inhibitory concentration, broth microdilution; format: cell-based; settings: Staphylococcus aureus
Method: as §2

[7] = tested on: MRSA 43300 biofilm; test: Biofilm inhibition, crystal violet assay; format: cell-based, Staphylococcus aureus; settings: 30 h
Method: as §3
Antibiotic resistance and biofilm formation share similar regulatory mechanisms. […] Biofilm inhibition was first assessed in S. aureus 43300, a methicillin-resistant strain (see Table 18). As described in Materials and Methods, a standard crystal violet assay was used to assess biofilm inhibition by the tested compounds. The IC50 is described as the compound concentration required to inhibit 50% of biofilm formation. The standard deviation is calculated from at least 3 independent experiments.

[8] = tested on: S. aureus USA300 (MRSA); test: Antibiotic repotentiation (antibiotic MIC with/without compound); format: cell-based, Staphylococcus aureus; settings: +50 μM compound, S. aureus USA300 (MRSA); for Fold Reduction: oxacillin MIC
Method: as §1, §2

[9] = tested on: S. aureus USA100 (MRSA); test: microbe, parasite or virus in culture; format: cell-based, Staphylococcus aureus; settings: compound alone, CAMHB, 18 h
[10] = tested on: S. aureus USA100 (MRSA); test: Antibiotic repotentiation (antibiotic MIC with/without compound); format: cell-based, Staphylococcus aureus; settings: +50 μM compound, S. aureus USA100 (MRSA); for Fold Reduction: oxacillin MIC
Method: as §1

[11] = Staphylococcus aureus, compound alone, S. aureus USA300 (MRSA), CAMHB, read-out: MIC
[12] = Staphylococcus aureus, compound alone, S. aureus ATCC 43300 (MRSA), CAMHB, read-out: MIC
[13] = ATCC29213, compound alone, S. aureus ATCC 29213, CAMHB, 18 h, read-out: MIC
[14] = compound alone, S. aureus ATCC 43300 (MRSA), CAMHB, read-out: MIC
[15] = compound alone, S. aureus USA300 (MRSA), CAMHB, read-out: MIC

CN1CCN(C2=Nc3ccccc3Oc3ccc(Cl)cc32)CC1 [Loxapine, 2-chloro-11-(4-methyl-1-piperazinyl)dibenz[b,f][1,4]oxazepine, reference compound]
Fold Reduction ([1]; +75 μM compound): 1
Fold Reduction ([1]; +150 μM compound): 4
MIC [2, 11]: 600 µM
MIC [3, 12]: 600 µM
Oxacillin MIC [4]: 8 µg/mL
Fold Reduction ([4]; oxacillin MIC): 2
pIC50 ([5]; Staphylococcus epidermidis, ATCC49461, 30 h): 3.57
MIC [6, 13]: 600 µM

Clc1cc2cccnc2c2ncccc12 [Compound V-6]
Oxacillin MIC ([1]; +31.25 μM compound): 4 µg/mL
Fold Reduction ([1]; +31.25 μM compound): 8
MIC [3, 14]: 125 µM
pIC50 [7]: 3.73
pIC50 ([5]; 30 h): 4.24

Clc1ccc2c(c1)Nc1ccccc1CC2 [Compound I-5, 3-chloro-10,11-dihydro-5H-dibenzo[b,f]azepine]
Fold Reduction ([1]; +50 μM compound): 16
pIC50 ([7]; Staphylococcus aureus, MRSA): 4.73

c1ccc2c(c1)[nH]c1ccccc12 [IV-1]
Oxacillin MIC [8]: 64 µg/mL
Fold Reduction [8]: 1
Oxacillin MIC ([1]; +50 μM compound): 32 µg/mL
Fold Reduction ([1]; +50 μM compound): 1
MIC [9]: >200 µM
Oxacillin MIC [10]: 512 µg/mL
Fold Reduction [10]: 1
MIC [2, 15]: >200 µM
MIC [3, 14]: >200 µM

Brc1ccc2[nH]c3ccc(Br)cc3c2c1 [IV-5]
Oxacillin MIC [8]: 32 µg/mL
Fold Reduction [8]: 2
Oxacillin MIC ([1]; +50 μM compound): 8/4
Fold Reduction ([1]; +50 μM compound): 4/8
MIC [9]: >200 µM
Oxacillin MIC [10]: 4 µg/mL
Fold Reduction [10]: 128
MIC [2, 15]: >200 µM
MIC [3, 14]: >200 µM

CN1CCN(C2=Nc3cc(Cl)ccc3Nc3ccccc32)CC1 [Clozapine, 8-chloro-11-(4-methyl-1-piperazinyl)-5H-dibenzo[b,e][1,4]diazepine, reference compound]
MIC [2, 11]: 600 µM
MIC [3, 12]: 600 µM
Oxacillin MIC [4]: 16 µg/mL
MIC [6, 13]: 1200 µM

Cc1cc2c(s1)Nc1ccccc1N=C2N1CCN(C)CC1 [Olanzapine, reference compound]
Fold Reduction ([1]; +75 μM compound): 1
Fold Reduction ([1]; +150 μM compound): 1
MIC ([2]; Staphylococcus aureus): 600 µM
MIC ([3]; Staphylococcus aureus): 600 µM
MIC ([6]; ATCC29213, 18 h): 600 µM
